Assay results from patent US6350917B1, “α-crystal of cyclopentenone” (Takara Shuzo Co., Ltd., priority 1997, dated 2002).

Assay: Thermostability: quantitative determination of the cyclopentenone (UV absorbance near 215 nm) initially and after standing at 40° C. for six days
Type: physicochemical
Conditions: for Amount of the Cyclopentenone (%) After Standing at 40° C. for six days / Amount of the Cyclopentenone (%) At Initial Stage: ratio of the cyclopentenone in the sample; for Amount of the Cyclopentenone (%) At Initial Stage: the rest being water and impurities
Experimental: In order to compare the thermostability of the freeze-dried cyclopentenone obtained in Referential Example 1 and that of the α-type crystals obtained in Example 1, quantitative determination was conducted for the cyclopentenone on the initial stage and after allowing to stand at 40° C. for six days by means of the following quantitative determination method.
Quantitative Determination Method: A sample (0.1 g) of the cyclopentenone is dissolved in 100 ml of water and 2 ml of the resulting solution are diluted to an extent of 50-fold. Absorbance (A) of this solution at the wave length of maximum absorption near the wave length of 215 nm is measured. Amount of the cyclopentenone (mg/ml) is calculated by the following formula.
Amount of the Cyclopentenone (mg/ml)=(A÷773.4)×50000

| Amount of the Cyclopentenone (%) After Standing at 40° C. for six days | Amount of the Cyclopentenone (%) At Initial Stage | SMILES | Thermostability compared with the freeze-dried product (40° C. for six days, in words) |
| --- | --- | --- | --- |
| 28.2% | 59.4% | O=C1C=C[C@@H](O)[C@@H]1O (relative stereo) [Freeze-Dried Product, trans-4,5-dihydroxy-2-cyclopenten-1-one, reference compound] | – |
| 95.2% | 96.4% | O=C1C=C[C@@H](O)[C@@H]1O (relative stereo) [α-Type Crystals, trans-4,5-dihydroxy-2-cyclopenten-1-one] | significantly improved thermostability as compared with the freeze-dried product |
